Source: US6699989B1, “Antiviral and antimicrobial guanidine or biguanidine derivatives” (priority 2000, dated 2004)
≈ marks a conversion by molar mass, not a printed value. Entries after “also recorded” stand apart in the source; their conditions may differ. Read-outs that look alike come from different tables or passages of the source.

Tests used:
CEM-SS cells = format: cell-based
[1] = test system: Escherichia coli ATCC 11229; assay: Microdilution broth MIC assay; format: cell-based; conditions: ATCC11229, Ec, Mueller Hinton broth, about 17 hr
Method: (§1) Test organisms. The test organisms are listed in Table 5 along with their source. Prior to assay, overnight bacterial slant cultures were used to inoculate Mueller Hinton broth followed by incubation for 5-7 hr. Each culture was then standardized turbidimetrically to a viable count of about 10^6 colony forming units/ml and used to inoculate the mirotiter assay plates. The viable count after addition to the plates was about 5×10^5 CFU/ml.
(§2) Experimental design. The MIC of the test compounds for the bacterial strains was determined with a microdilution broth assay in 96 well microtiter plates. The test compounds were dissolved in DMSO and then diluted 10-fold in assay medium (Mueller Hinton broth) to obtain final concentrations of 0.128, 1.28, 12.8, and 128 μg/ml. A viability control containing DMSO, diluted in the same manner as the test compounds, was used to confirm that the DMSO was not inhibitory by itself. Trimethoprim (TMP) was used as a positive drug control. The assay plates were incubated at 37° C. for about 17 hr and each assay well observed visually for growth. The MIC was determined at the lowest concentration of drug which inhibited growth. [drawing 32]

[2] = test system: Klebsiella pneumoniae ATCC 4352; assay: Microdilution broth MIC assay; format: cell-based; conditions: ATCC4352, Kp, Mueller Hinton broth, about 17 hr
Method: as §1, §2

[3] = test system: Proteus mirabilis ATCC 9921; assay: Microdilution broth MIC assay; format: cell-based; conditions: ATCC9921, Pm, Mueller Hinton broth, about 17 hr
Method: as §1, §2

[4] = test system: Pseudomonas aeruginosa ATCC 15442; assay: Microdilution broth MIC assay; format: cell-based; conditions: ATCC15442, Pa, Mueller Hinton broth, about 17 hr
Method: as §1, §2

[5] = test system: Staphylococcus aureus ATCC 6538; assay: Microdilution broth MIC assay; format: cell-based; conditions: ATCC6538, Sa, Mueller Hinton broth, about 17 hr
Method: as §1, §2

[6] = test system: Staphylococcus epidermidis ATCC 35984; assay: Microdilution broth MIC assay; format: cell-based; conditions: ATCC35984, Se, Mueller Hinton broth, about 17 hr
Method: as §1, §2

[7] = test system: Streptococcus pneumoniae ATCC 6303; assay: Microdilution broth MIC assay; format: cell-based; conditions: ATCC6303, Sp, Mueller Hinton broth, about 17 hr
Method: as §1, §2

HIV-1 [8] = test system: HIV-1
Method: (§3) This is a cytoprotection assay that uses the T-lymphoblastoid tumor cell line CEM-SS and laboratory adapted strains of HIV-1. Upon infection with HIV, the CEM-SS cells form syncytia and eventually die, producing large amounts of progeny virus over the course of 4-6 days at the standard multiplicity of infection (0.01). The antiviral assay measures the ability of a given compound to inhibit the HIV-induced cell killing. […] The activity of the compound is evaluated by measuring cell viability at 6 days post-infection and comparing the viability to that obtained in cell control (cells only), virus control (cells and virus only) and toxicity control (cells and compound only) wells.
(§4) Efficacy of the compound in cell culture is measured by increased cell viability in CEM-SS assays or reduction in virus production in PBMC assays. The data obtained yields a dose response curve which can be evaluated to determine doses which yield 25%, 50% and 95% protection from HIV-induced cell killing or virus production. […] These concentrations are reported as the TC25, TC50 and TC95 values. The ratio of toxicity to efficacy constitutes the therapeutic index TC50/IC50.
(§5) CEM-SS cells assay measures the ability of the compound to inhibit HIV induced cell killing. The cells are stained at 6 days post-infection with the tetrazolium dye XTT which is converted to a colored formazan product by the mitochondria of viable cells. Protection from cell killing afforded by the test compound is measured by comparison to both cell controls and virus controls. Cell killing in this system is directly related to the amount of virus produced by the infected cells and XTT-formazan production is proportional to the number of viable cells in each well. Toxicity of the compound to the target cells is measured in parallel.
(§6) CEM-SS cells (or other established human cell line used in these experiments) were passaged in T-150 flasks for use in the assay. On the day preceding the assay, the cells were split 1:2 to assure they would be in an exponential growth phase at time of infection. On the day of assay the cells were washed twice with tissue culture medium and resuspended in fresh tissue culture medium. Total cell and viability counting was performed using hemacytometer and trypan blue dye exclusion. Cell viability was greater than 95% for the cells to be utilized in the assay. The cells were pelleted and resuspended at 2.5×10^4 cells per ml in tissue culture medium. Cells were added to the drug-containing plates in a volume of 50 μl.
(§7) A pretitered aliquot of virus was removed from the freezer (−80° C.) and allowed to thaw slowly to room temperature in a biological safety cabinet. The virus was resuspended and diluted into tissue culture medium such that the amount of virus added to each well in a volume of 50 μl will be the amount determined to give complete cell killing at 6 days post-infection. In general the virus pools produced with the IIIB isolate of HIV required the addition of 5 μl of virus per well.
(§8) Each plate contained cell control wells (cells only), virus control wells (cells plus virus), drug toxicity control wells (cells plus drug only), drug colorimetric control wells (drug only) as well as experimental wells (drug plus cells plus virus).
(§9) After 6 days of incubation at 37° C. in a 5% CO2 incubator the test plates were analyzed by staining with the tetrazolium dye XTT. XTT-tetrazolium is metabolized by the mitochondrial enzymes of metabolically active cells to a soluble formazan product, allowing the rapid quantitative analysis of the inhibition of HIV-induced cell killing by anti-HIV test substances. On day 6 post-infection plates were removed from the incubator and observed.

HIV-1 [9] = assay: microbe, parasite or virus in culture; conditions: Human immunodeficiency virus 1, CEM-SS
Method: as §3, §4, §5, §6, §7, §8, §9

N=C(NCCCCCCNC(=N)NC(=N)N1CCN(c2cc3c(cc2F)c(=O)c(C(=O)O)cn3C2CC2)CC1)NC(=N)N1CCN(c2cc3c(cc2F)c(=O)c(C(=O)O)cn3C2CC2)CC1 [BVS-10A]
% CELL VIABILITY (CEM-SS cells; 0.00032 uG/mL, CEM-SS): 100% | CYTOTOXICITY TEST VALUES MEAN O.D. (CEM-SS cells; 0.00032 uG/mL, CEM-SS): 1.317 O.D. | % CELL VIABILITY (CEM-SS cells; 0.001 uG/mL, CEM-SS): 100% | CYTOTOXICITY TEST VALUES MEAN O.D. (CEM-SS cells; 0.001 uG/mL, CEM-SS): 1.323 O.D. | % CELL VIABILITY (CEM-SS cells; 0.0032 uG/mL, CEM-SS): 100% | CYTOTOXICITY TEST VALUES MEAN O.D. (CEM-SS cells; 0.0032 uG/mL, CEM-SS): 1.307 O.D. | % CELL VIABILITY (CEM-SS cells; 0.01 uG/mL, CEM-SS): 100% | CYTOTOXICITY TEST VALUES MEAN O.D. (CEM-SS cells; 0.01 uG/mL, CEM-SS): 1.364 O.D. | % CELL VIABILITY (CEM-SS cells; 0.032 uG/mL, CEM-SS): 100% | CYTOTOXICITY TEST VALUES MEAN O.D. (CEM-SS cells; 0.032 uG/mL, CEM-SS): 1.339 O.D. | % CELL VIABILITY (CEM-SS cells; 0.1 uG/mL, CEM-SS): 100% | CYTOTOXICITY TEST VALUES MEAN O.D. (CEM-SS cells; 0.1 uG/mL, CEM-SS): 1.369 O.D. | % CELL VIABILITY (CEM-SS cells; 0.32 uG/mL, CEM-SS): 100% | CYTOTOXICITY TEST VALUES MEAN O.D. (CEM-SS cells; 0.32 uG/mL, CEM-SS): 1.385 O.D. | % CELL VIABILITY (CEM-SS cells; 1 uG/mL, CEM-SS): 100% | CYTOTOXICITY TEST VALUES MEAN O.D. (CEM-SS cells; 1 uG/mL, CEM-SS): 1.512 O.D. | % CELL VIABILITY (CEM-SS cells; 3.2 uG/mL, CEM-SS): 100% | CYTOTOXICITY TEST VALUES MEAN O.D. (CEM-SS cells; 3.2 uG/mL, CEM-SS): 1.556 O.D. | % CELL VIABILITY (CEM-SS cells; 10 uG/mL, CEM-SS): 100% | CYTOTOXICITY TEST VALUES MEAN O.D. (CEM-SS cells; 10 uG/mL, CEM-SS): 1.804 O.D. | % CELL VIABILITY (CEM-SS cells; 32 uG/mL, CEM-SS): 100% | CYTOTOXICITY TEST VALUES MEAN O.D. (CEM-SS cells; 32 uG/mL, CEM-SS): 2.390 O.D. | % CELL VIABILITY (CEM-SS cells; 100 uG/mL, CEM-SS): 100% | CYTOTOXICITY TEST VALUES MEAN O.D. (CEM-SS cells; 100 uG/mL, CEM-SS): 1.797 O.D. | TC 25% (CEM-SS cells; CEM-SS, XTT): >100.00 UG/mL | TC 50% (CEM-SS cells; CEM-SS, XTT): >100.00 UG/mL | TC 95% (CEM-SS cells; CEM-SS, XTT): >100.00 UG/mL | toxicity in CEM-SS cells (CEM-SS cells; at concentrations up to 100 μg/mL): nontoxic; also recorded: No toxicity | MIC [1]: 0.128 to 1.28 µg/mL (≈ 0.14 to 1.4 µM) | MIC [2]: < 0.128 µg/mL | MIC [3]: 0.128 to 1.28 µg/mL (≈ 0.14 to 1.4 µM) | MIC [4]: 1.28 to 12.8 µg/mL (≈ 1.4 to 14 µM) | MIC [5]: < 0.128 µg/mL | MIC [6]: < 0.128 µg/mL | MIC [7]: 1.28 to 12.8 µg/mL (≈ 1.4 to 14 µM) | % RED. IN VIRAL CPE (HIV-1 [8]; 0.00032 uG/mL, CEM-SS, HIV1 RF): 3% | ANTIVIRAL TEST VALUES MEAN O.D. (HIV-1 [8]; 0.00032 uG/mL, CEM-SS, HIV1 RF): 0.038 O.D. | % RED. IN VIRAL CPE (HIV-1 [8]; 0.001 uG/mL, CEM-SS, HIV1 RF): 4% | ANTIVIRAL TEST VALUES MEAN O.D. (HIV-1 [8]; 0.001 uG/mL, CEM-SS, HIV1 RF): 0.049 O.D. | % RED. IN VIRAL CPE (HIV-1 [8]; 0.0032 uG/mL, CEM-SS, HIV1 RF): 1% | ANTIVIRAL TEST VALUES MEAN O.D. (HIV-1 [8]; 0.0032 uG/mL, CEM-SS, HIV1 RF): 0.009 O.D. | % RED. IN VIRAL CPE (HIV-1 [8]; 0.01 uG/mL, CEM-SS, HIV1 RF): 4% | ANTIVIRAL TEST VALUES MEAN O.D. (HIV-1 [8]; 0.01 uG/mL, CEM-SS, HIV1 RF): 0.042 O.D. | % RED. IN VIRAL CPE (HIV-1 [8]; 0.032 uG/mL, CEM-SS, HIV1 RF): 7% | ANTIVIRAL TEST VALUES MEAN O.D. (HIV-1 [8]; 0.032 uG/mL, CEM-SS, HIV1 RF): 0.083 O.D. | % RED. IN VIRAL CPE (HIV-1 [8]; 0.1 uG/mL, CEM-SS, HIV1 RF): 2% | ANTIVIRAL TEST VALUES MEAN O.D. (HIV-1 [8]; 0.1 uG/mL, CEM-SS, HIV1 RF): 0.021 O.D. | % RED. IN VIRAL CPE (HIV-1 [8]; 0.32 uG/mL, CEM-SS, HIV1 RF): 4% | ANTIVIRAL TEST VALUES MEAN O.D. (HIV-1 [8]; 0.32 uG/mL, CEM-SS, HIV1 RF): 0.051 O.D. | % RED. IN VIRAL CPE (HIV-1 [8]; 1 uG/mL, CEM-SS, HIV1 RF): 9% | ANTIVIRAL TEST VALUES MEAN O.D. (HIV-1 [8]; 1 uG/mL, CEM-SS, HIV1 RF): 0.103 O.D. | % RED. IN VIRAL CPE (HIV-1 [8]; 3.2 uG/mL, CEM-SS, HIV1 RF): 2% | ANTIVIRAL TEST VALUES MEAN O.D. (HIV-1 [8]; 3.2 uG/mL, CEM-SS, HIV1 RF): 0.025 O.D. | % RED. IN VIRAL CPE (HIV-1 [8]; 10 uG/mL, CEM-SS, HIV1 RF): 11% | ANTIVIRAL TEST VALUES MEAN O.D. (HIV-1 [8]; 10 uG/mL, CEM-SS, HIV1 RF): 0.123 O.D. | % RED. IN VIRAL CPE (HIV-1 [8]; 32 uG/mL, CEM-SS, HIV1 RF): 100% | ANTIVIRAL TEST VALUES MEAN O.D. (HIV-1 [8]; 32 uG/mL, CEM-SS, HIV1 RF): 1.515 O.D. | % RED. IN VIRAL CPE (HIV-1 [8]; 32 uG/mL, CEM-SS, HIV1 RF, listed as BVS10A): 100% | % RED. IN VIRAL CPE (HIV-1 [8]; 100 uG/mL, CEM-SS, HIV1 RF): 100% | ANTIVIRAL TEST VALUES MEAN O.D. (HIV-1 [8]; 100 uG/mL, CEM-SS, HIV1 RF): 1.717 O.D. | % RED. IN VIRAL CPE (HIV-1 [8]; 100 uG/mL, CEM-SS, HIV1 RF, listed as BVS10A): 100% | IC95 (HIV-1 [8]; CEM-SS cells): 30 µg/mL (≈ 32.9 µM) | IC 25% (HIV-1 [8]; CEM-SS, HIV1 RF): 12.00 UG/mL | IC 95% (HIV-1 [8]; CEM-SS, HIV1 RF): 30.00 UG/mL | IC50 (HIV-1 [9]): 16.6 µg/mL (≈ 18.2 µM) | IC50 (HIV-1 [9]; read-out: 50% inhibition of cell killing): 12 µg/mL (≈ 13.1 µM) | IC50 (HIV-1 [9]; read-out: calculated IC50): 16.6 µg/mL (≈ 18.2 µM)
